Data on one cell line can be found in the supplement of paper PMC10307832.

Holding throughout (assay): relative viability (nuclei count vs DMSO), 5 days (fraction); higher = more cells survive
Compound in the test “Axitinib + Palbociclib”: CNC(=O)c1ccccc1Sc1ccc2c(/C=C/c3ccccn3)n[nH]c2c1 [Axitinib] + CC(=O)c1c(C)c2cnc(Nc3ccc(N4CCNCC4)cn3)nc2n(C2CCCC2)c1=O [Palbociclib] (partner 0.5 µM)
Put shortly:
(§1)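 Dosing by pin tool came one day after lung cancer cell lines were seeded in 1536-well plates, using either one drug or a fixed anchor-drug dose plus five library-drug doses (not always all listed) in √10 steps. After 5 days, nuclei were counted on 4× images. Relative viability is treated-well nuclei count divided by vehicle-well nuclei count, and values are medians of duplicate plates.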

Compound in the test “Axitinib + Foretinib”: CNC(=O)c1ccccc1Sc1ccc2c(/C=C/c3ccccn3)n[nH]c2c1 [Axitinib] + COc1cc2c(Oc3ccc(NC(=O)C4(C(=O)Nc5ccc(F)cc5)CC4)cc3F)ccnc2cc1OCCCN1CCOCC1 [Foretinib] (partner 0.25 µM)
Put shortly: as §1

Compound in the test “Axitinib + Pemetrexed”: CNC(=O)c1ccccc1Sc1ccc2c(/C=C/c3ccccn3)n[nH]c2c1 [Axitinib] + Nc1nc2[nH]cc(CCc3ccc(C(=O)N[C@@H](CCC(=O)O)C(=O)O)cc3)c2c(=O)[nH]1 [Pemetrexed] (partner 0.2 µM)
The procedure, abridged:
as §1

Compound in the test “Bemcentinib + Pemetrexed”: Nc1nc(Nc2ccc3c(c2)CC[C@@H](N2CCCC2)CC3)nn1-c1cc2c(nn1)-c1ccccc1CCC2 [Bemcentinib] + Nc1nc2[nH]cc(CCc3ccc(C(=O)N[C@@H](CCC(=O)O)C(=O)O)cc3)c2c(=O)[nH]1 [Pemetrexed] (partner 0.2 µM)
Put shortly: as §1

Turning to NCI-H650, the relative viability in the test with Axitinib + Palbociclib (first compound 0.005 µM) is 0.327; with Axitinib + Palbociclib (first compound 0.01581 µM), 0.342; with Axitinib + Palbociclib (first compound 0.05 µM) it was 0.312; with Axitinib + Palbociclib (first compound 0.1581 µM) it was 0.321; in the test with Axitinib + Palbociclib (first compound 0.5 µM), 0.325; in the test with Axitinib + Foretinib (first compound 0.005 µM), 1.08. In addition, the relative viability with Axitinib + Foretinib (first compound 0.01581 µM) was 1.12; with Axitinib + Foretinib (first compound 0.05 µM), 0.953; with Axitinib + Foretinib (first compound 0.1581 µM) it was 0.984; with Axitinib + Foretinib (first compound 0.5 µM), 1.07; with Axitinib + Pemetrexed (first compound 0.005 µM) it was 1.09; with Axitinib + Pemetrexed (first compound 0.01581 µM) it was 0.808. Also, the relative viability in the test with Axitinib + Pemetrexed (first compound 0.05 µM) came out at 1.04; with Axitinib + Pemetrexed (first compound 0.1581 µM) it was 1.02; with Axitinib + Pemetrexed (first compound 0.5 µM), 0.855; with Bemcentinib + Pemetrexed (first compound 0.04 µM), 0.843; in the test with Bemcentinib + Pemetrexed (first compound 0.1265 µM), 1.06; with Bemcentinib + Pemetrexed (first compound 0.4 µM), 1.09. For the same cell line, the figures for the relative viability in the test with Bemcentinib + Pemetrexed (first compound 1.265 µM) and in the test with Bemcentinib + Pemetrexed (first compound 4 µM) were 0.941 and 1.01, respectively.
